Source: PubChem BioAssay (NCI)
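Five compound concentrations were applied to cells in 96-well plates for 48 hours; endpoints were derived by simple linear interpolation of the resulting dose-response curve. TGI marks complete inhibition of growth.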

Key:
Assay in all cases: growth of human tumour cells (NCI), 48 h
DLD-1 colon = test system: DLD-1 colon
UO-31 renal = test system: UO-31 renal
SF-539 CNS = test system: SF-539 CNS
LOX IMVI melanoma = test system: LOX IMVI melanoma
SR leukemia = test system: SR leukemia
NCI-H460 lung = test system: NCI-H460 lung
U251 CNS = test system: U251 CNS
A549 NSCLC = test system: A549 NSCLC
OVCAR-8 ovarian = test system: OVCAR-8 ovarian
SNB-75 CNS = test system: SNB-75 CNS
RXF 393 renal = test system: RXF 393 renal
SNB-78 CNS = test system: SNB-78 CNS
HT29 colon = test system: HT29 colon
NCI-H226 lung = test system: NCI-H226 lung
SK-MEL-5 melanoma = test system: SK-MEL-5 melanoma
SK-OV-3 ovarian = test system: SK-OV-3 ovarian
M14 melanoma = test system: M14 melanoma
786-0 renal = test system: 786-0 renal
DMS 273 small cell lung = test system: DMS 273 small cell lung
SW-620 colon = test system: SW-620 colon
SF-295 CNS = test system: SF-295 CNS
LXFL 529 NSCLC = test system: LXFL 529 NSCLC
A498 renal = test system: A498 renal
MOLT-4 leukemia = test system: MOLT-4 leukemia
OVCAR-3 ovarian = test system: OVCAR-3 ovarian
UACC-62 melanoma = test system: UACC-62 melanoma
SF-268 CNS = test system: SF-268 CNS
RPMI-8226 leukemia = test system: RPMI-8226 leukemia
OVCAR-4 ovarian = test system: OVCAR-4 ovarian
K-562 leukemia = test system: K-562 leukemia
NCI-H23 lung = test system: NCI-H23 lung
DMS 114 small cell lung = test system: DMS 114 small cell lung
OVCAR-5 ovarian = test system: OVCAR-5 ovarian
SK-MEL-28 melanoma = test system: SK-MEL-28 melanoma
HL-60(TB) leukemia = test system: HL-60(TB) leukemia
COLO 205 colon = test system: COLO 205 colon
SNB-19 CNS = test system: SNB-19 CNS
KM12 colon = test system: KM12 colon
EKVX NSCLC = test system: EKVX NSCLC
CCRF-CEM leukemia = test system: CCRF-CEM leukemia
IGROV1 ovarian = test system: IGROV1 ovarian
HOP-18 NSCLC = test system: HOP-18 NSCLC
ACHN renal = test system: ACHN renal
TK-10 renal = test system: TK-10 renal
M19-MEL melanoma = test system: M19-MEL melanoma
MALME-3M melanoma = test system: MALME-3M melanoma
HCC-2998 colon = test system: HCC-2998 colon
HCT-15 colon = test system: HCT-15 colon
NCI-H522 lung = test system: NCI-H522 lung
SN12C renal = test system: SN12C renal
HCT-116 colon = test system: HCT-116 colon
HOP-92 NSCLC = test system: HOP-92 NSCLC
CAKI-1 renal = test system: CAKI-1 renal
UACC-257 melanoma = test system: UACC-257 melanoma
SK-MEL-2 melanoma = test system: SK-MEL-2 melanoma
KM20L2 colon = test system: KM20L2 colon
HOP-62 NSCLC = test system: HOP-62 NSCLC

With `O=C1C=C(c2[nH]c3ccccc3c2C2=CC(=O)c3ccccc3C2=O)C(=O)c2ccccc21` the TGI (DLD-1 colon) was > 100 µM, the TGI (UO-31 renal) was > 100 µM and the TGI (SF-539 CNS) was > 100 µM. For the same molecule, the TGI (LOX IMVI melanoma) was 59 µM, the TGI (SR leukemia) was 57.1 µM and the TGI (NCI-H460 lung) was > 100 µM. For the same molecule, the TGI (U251 CNS) was > 100 µM, the TGI (A549 NSCLC) was > 100 µM and the TGI (OVCAR-8 ovarian) was > 100 µM. The TGI (SNB-75 CNS) was 57.6 µM, the TGI (RXF 393 renal) was > 100 µM and the TGI (SNB-78 CNS) was > 100 µM. For the same molecule, the TGI (HT29 colon) was > 100 µM, the TGI (NCI-H226 lung) was > 100 µM and the TGI (SK-MEL-5 melanoma) was > 100 µM. For the same molecule, the TGI (SK-OV-3 ovarian) was > 100 µM, the TGI (M14 melanoma) was > 100 µM and the TGI (786-0 renal) was > 100 µM. The TGI (DMS 273 small cell lung) was > 100 µM, the TGI (SW-620 colon) was > 100 µM and the TGI (SF-295 CNS) was > 100 µM. For the same molecule, the TGI (LXFL 529 NSCLC) was > 100 µM, the TGI (A498 renal) was > 100 µM and the TGI (MOLT-4 leukemia) was 35.7 µM. For the same molecule, the TGI (OVCAR-3 ovarian) was 88.3 µM, the TGI (UACC-62 melanoma) was 71.3 µM and the TGI (SF-268 CNS) was > 100 µM. The TGI (RPMI-8226 leukemia) was > 100 µM, the TGI (OVCAR-4 ovarian) was > 100 µM and the TGI (K-562 leukemia) was 60.1 µM. For the same molecule, the TGI (NCI-H23 lung) was > 100 µM, the TGI (DMS 114 small cell lung) was 36.6 µM and the TGI (OVCAR-5 ovarian) was > 100 µM. For the same molecule, the TGI (SK-MEL-28 melanoma) was > 100 µM, the TGI (HL-60(TB) leukemia) was 44.4 µM and the TGI (COLO 205 colon) was > 100 µM. The TGI (SNB-19 CNS) was > 100 µM, the TGI (KM12 colon) was > 100 µM and the TGI (EKVX NSCLC) was > 100 µM. The TGI (CCRF-CEM leukemia) was 43.9 µM, the TGI (IGROV1 ovarian) was 95.6 µM and the TGI (HOP-18 NSCLC) was > 100 µM. For the same molecule, the TGI (ACHN renal) was > 100 µM, the TGI (TK-10 renal) was > 100 µM and the TGI (M19-MEL melanoma) was 35.4 µM.

`C=CCCCCCCCC(O)C1C[C@H](O)C(CCCCC)O1` (stereo not given in full) was tested, and the TGI (DLD-1 colon) was 31 µM, the TGI (UO-31 renal) was 31.9 µM and the TGI (SF-539 CNS) was 30.7 µM. The TGI (LOX IMVI melanoma) was 36.1 µM, the TGI (NCI-H460 lung) was 37.2 µM and the TGI (U251 CNS) was 31.3 µM. It also gave a TGI (A549 NSCLC) of 37.5 µM, a TGI (OVCAR-8 ovarian) of 40.2 µM and a TGI (SNB-75 CNS) of 29.7 µM. The TGI (RXF 393 renal) was 37.7 µM, the TGI (MALME-3M melanoma) was 33.5 µM and the TGI (SNB-78 CNS) was 45.1 µM. The TGI (HT29 colon) was 35.6 µM, the TGI (NCI-H226 lung) was 29.6 µM and the TGI (SK-MEL-5 melanoma) was 34.7 µM. The TGI (SK-OV-3 ovarian) was 43.2 µM, the TGI (M14 melanoma) was 34.6 µM and the TGI (786-0 renal) was 32.2 µM. It also gave a TGI (HCC-2998 colon) of 33.4 µM, a TGI (HCT-15 colon) of 40 µM and a TGI (DMS 273 small cell lung) of 32.8 µM. The TGI (SW-620 colon) was 41.7 µM, the TGI (SF-295 CNS) was 33 µM and the TGI (LXFL 529 NSCLC) was 29 µM. It also gave a TGI (A498 renal) of 36.1 µM, a TGI (MOLT-4 leukemia) of 43.6 µM and a TGI (OVCAR-3 ovarian) of 32.7 µM. For the same molecule, the TGI (NCI-H522 lung) was 35.1 µM, the TGI (UACC-62 melanoma) was 29.6 µM and the TGI (RPMI-8226 leukemia) was 43.9 µM. The TGI (SN12C renal) was 36 µM, the TGI (K-562 leukemia) was 47.6 µM and the TGI (NCI-H23 lung) was 36.8 µM. For the same molecule, the TGI (DMS 114 small cell lung) was 37 µM, the TGI (HCT-116 colon) was 34.5 µM and the TGI (SK-MEL-28 melanoma) was 33.7 µM. The TGI (HL-60(TB) leukemia) was 37.4 µM, the TGI (COLO 205 colon) was 34.5 µM and the TGI (HOP-92 NSCLC) was 30.7 µM. It also gave a TGI (KM12 colon) of 41.3 µM, a TGI (EKVX NSCLC) of 36.7 µM and a TGI (CCRF-CEM leukemia) of 41.6 µM. It also gave a TGI (IGROV1 ovarian) of 42.2 µM, a TGI (CAKI-1 renal) of 34.6 µM and a TGI (HOP-18 NSCLC) of 32.1 µM. It also gave a TGI (ACHN renal) of 36.6 µM, a TGI (TK-10 renal) of 34.8 µM and a TGI (M19-MEL melanoma) of 35.9 µM.

For `CN=c1ss/c(=N\C(=S)N(C)C)n1-c1ccccc1`, the TGI (DLD-1 colon) was > 100 µM, the TGI (UO-31 renal) was > 100 µM and the TGI (SF-539 CNS) was > 100 µM. The TGI (LOX IMVI melanoma) was > 100 µM, the TGI (SR leukemia) was > 100 µM and the TGI (NCI-H460 lung) was > 100 µM. For the same molecule, the TGI (U251 CNS) was > 100 µM, the TGI (A549 NSCLC) was > 100 µM and the TGI (OVCAR-8 ovarian) was > 100 µM. For the same molecule, the TGI (SNB-75 CNS) was 42.6 µM, the TGI (RXF 393 renal) was > 82.1 µM and the TGI (MALME-3M melanoma) was > 100 µM. The TGI (SNB-78 CNS) was > 100 µM, the TGI (HT29 colon) was > 31.6 µM and the TGI (NCI-H226 lung) was > 100 µM. For the same molecule, the TGI (SK-MEL-5 melanoma) was > 100 µM, the TGI (SK-OV-3 ovarian) was > 100 µM and the TGI (M14 melanoma) was > 100 µM. For the same molecule, the TGI (786-0 renal) was > 100 µM, the TGI (HCC-2998 colon) was > 100 µM and the TGI (UACC-257 melanoma) was > 100 µM. The TGI (HCT-15 colon) was > 100 µM, the TGI (DMS 273 small cell lung) was > 100 µM and the TGI (SW-620 colon) was > 100 µM. For the same molecule, the TGI (SF-295 CNS) was > 100 µM, the TGI (LXFL 529 NSCLC) was > 100 µM and the TGI (A498 renal) was > 100 µM. For the same molecule, the TGI (SK-MEL-2 melanoma) was > 100 µM, the TGI (MOLT-4 leukemia) was > 100 µM and the TGI (OVCAR-3 ovarian) was > 100 µM. For the same molecule, the TGI (NCI-H522 lung) was > 28.5 µM, the TGI (UACC-62 melanoma) was > 100 µM and the TGI (SF-268 CNS) was > 100 µM. For the same molecule, the TGI (RPMI-8226 leukemia) was > 100 µM, the TGI (SN12C renal) was > 100 µM and the TGI (OVCAR-4 ovarian) was > 100 µM. The TGI (K-562 leukemia) was > 100 µM, the TGI (NCI-H23 lung) was > 100 µM and the TGI (DMS 114 small cell lung) was > 100 µM. The TGI (HCT-116 colon) was > 100 µM, the TGI (OVCAR-5 ovarian) was > 100 µM and the TGI (SK-MEL-28 melanoma) was > 100 µM. For the same molecule, the TGI (HL-60(TB) leukemia) was > 100 µM, the TGI (COLO 205 colon) was > 100 µM and the TGI (HOP-92 NSCLC) was > 100 µM. The TGI (SNB-19 CNS) was > 100 µM, the TGI (KM12 colon) was > 100 µM and the TGI (EKVX NSCLC) was > 100 µM. The TGI (CCRF-CEM leukemia) was > 100 µM, the TGI (IGROV1 ovarian) was > 100 µM and the TGI (CAKI-1 renal) was > 100 µM. For the same molecule, the TGI (KM20L2 colon) was > 100 µM, the TGI (HOP-18 NSCLC) was > 100 µM and the TGI (HOP-62 NSCLC) was > 100 µM. The TGI (ACHN renal) was > 100 µM, the TGI (TK-10 renal) was > 100 µM and the TGI (M19-MEL melanoma) was > 100 µM.
